This is an account of results in patent US20200093929A1, “PHARMACEUTICAL COMPOSITION FOR THE PREVENTION AND TREATMENT OF MEMORY AND COGNITIVE DEFICITS RELATED TO AGEING” (IGEA PHARMA N.V., priority 2017, published 2020).

SMILES strings stand for the structures. Marks after values point to notes of the source that are not given here.

Series [1] has as its system N2a (ECACC) mouse neuroblastoma cells. Kind of series: Cell viability by MTT reduction test in N2a cells, with and without Aβ1-42 prefibrillar aggregates. Format: cell-based. The note with it: for Comparison of the results among the glutathione thioesters used (cell viability, mTOR P, ACi): micromolar levels, with and without Aβ1-42 aggregates; for Comparison of the results among glycated oleuropein, oleuropein aglycone and hydroxytyrosol: Example 1 cell experiments. On the procedure: (§1) N2a (ECACC) mouse neuroblastoma cells, plated in the presence of MEM integrated with non-essential amino acids, 10% FCS, antibiotics and glutamine, were exposed for 48 h to micromolar levels of oleuropein aglycone and/or glutathione thioesters (GST), in the presence and in the absence of prefibrillar aggregates of Aβ1-42 peptides (Lambert M, et al. J. Neurochem. 2001, 79:595-605). […] In the control plates (CTRL) the cells were incubated under the same conditions in the presence of the culture medium alone. The following were then evaluated: • the state of cell viability through the MTT reduction test (Pensalfini A et al., Free
(§2) Rad Biol Med 2008, 44: 1624-1636). • the level of mTOR substrate phosphorylation of kinase p70 S6 (mTOR P) by western blot analysis and subsequent densitometry (Grossi C, et al., PLoS ONE 2013, 8: e71702) • the level of intracellular antioxidant capacity (ACi) through hydrosolublescavenger doses in the cellular lysates in chemiluminescence, using • the Pholasin photoprotein (ABEL Antioxidant Test Kit, Knight Scientific Ltd., UK) as reported in Cecchi C., et al. Neurobiol. Aging 28: 863-876, 2007.
(§3) ACi values were correct for the % of viable cells. AP=toxic prefibrillar aggregates.

The test system is the same in series [2]. Kind of series: Intracellular antioxidant capacity (ACi) in cell lysates, Pholasin chemiluminescence, N2a cells. As to conditions: 48 h, corrected for % viable cells, CTRL 2.60. Format: cell-based. On the procedure: as §1, §2, §3
The nature of series [3]: Cell viability by MTT reduction test in N2a cells, with and without Aβ1-42 prefibrillar aggregates. The format is cell-based, mouse. The note with it: mouse, N2a (ECACC) neuroblastoma cells; read-out: Cell viability (MTT test), % respect to controls. On the procedure: as §1, §2, §3
The subject of series [4] is mTOR. Kind of series: mTOR substrate phosphorylation of kinase p70 S6 (mTOR P), western blot and densitometry, N2a cells. Format: cell-based, mouse. The note with it: 48 h. On the procedure:
as §1, §2, §3
(In general: A western blot detects proteins with antibodies after separation by electrophoresis.)

Where [5] appears, read: in the presence of Aβ42 AP 3 μM (OLE 2 µM; GST 3 µM).
Setting [6] is: substance(s) alone, no Aβ42 AP added (Aβ42 AP 3 μM; OLE 2 µM; GST 3 µM).

With `CCCCC/C=C\C/C=C\CCCCCCCCSC[C@H](NC(=O)CC[C@H](N)C(=O)O)C(=O)NCC(=O)O` [S-linoleyl-glutathione], the “Comparison of the results among the glutathione thioesters used (cell viability, mTOR P, ACi)” value (“Comparison … (cell viability, mTOR P, ACi)” below) in series [1] (N2a cells, 48 h) is on record as “equivalent results”.

As to `C/C=C1/C(O)OC=C(C(=O)OC)[C@H]1CC(=O)OCCc1ccc(O)c(O)c1` (mixture of isomers) [OLE, oleuropein aglycone], the “ACi, mmol/L GSH Equivalent” value was 1.55* mmol/L GSH Equivalent in series [2] (setting [5]) and 2.68 mmol/L GSH Equivalent in series [2] (setting [6]). In addition, the “Comparison of the results among glycated oleuropein, oleuropein aglycone and hydroxytyrosol” value in series [1] is “No significant differences”. In series [1] (N2a cells, 48 h, in the presence of Aβ42 AP 3 μM (OLE 2 µM; GST 3 µM)), the “Cell viability (MTT test), % respect to controls” value is reported as 65* %. For the same molecule, the viability (commonly a read-out of living cells in per cent, often relative to untreated cells) at 48 h, 2 µM in series [3] stood at 98%. Besides, the “mTOR P, % respect to controls” value is 69% in series [4] (setting [5]) and 12* % in series [4] (setting [6]).

In the case of `C/C=C1/[C@H](O[C@@H]2O[C@H](CO)[C@@H](O)[C@H](O)[C@H]2O)OC=C(C(=O)OC)[C@H]1CC(=O)OCCc1ccc(O)c(O)c1` [glycated oleuropein, oleuropein], the “Comparison of the results among glycated oleuropein, oleuropein aglycone and hydroxytyrosol” value in series [1] was “No significant differences”.

Regarding `CC/C=C\C/C=C\C/C=C\C/C=C\C/C=C\C/C=C\CCC(=O)SC[C@H](NC(=O)CC[C@H](N)C(=O)O)C(=O)NCC(=O)O` [S-docohexaenoyl-glutathione], the “Comparison … (cell viability, mTOR P, ACi)” value in series [1] (N2a cells, 48 h) was “equivalent results”.

On to `CCCCCCCC/C=C\CCCCCCCCSC[C@H](NC(=O)CC[C@H](N)C(=O)O)C(=O)NCC(=O)O` [S-oleyl-glutathione], for which the “Comparison … (cell viability, mTOR P, ACi)” value in series [1] (N2a cells, 48 h) is listed as “equivalent results”.

Take `CC/C=C\C/C=C\C/C=C\CCCCCCCC(=O)SCC(NC(=O)CCC(N)C(=O)O)C(=O)NCC(=O)O` (stereo not drawn) [S-linolenoyl-glutathione]: the “Comparison … (cell viability, mTOR P, ACi)” value in series [1] (N2a cells, 48 h) is “equivalent results”.
